Experimental data as given in US20260083731A1, “METHODS OF TREATING UVEAL MELANOMA WITH A PKC INHIBITOR” (IDEAYA BIOSCIENCES, INC., priority 2022, published 2026).

Key:
[1] = test system: ocular tumor (uveal melanoma); test: Neoadjuvant treatment of uveal melanoma patients, ocular tumor size by ocular ultrasound; type: in vivo, human; details: vs baseline
Source text: Patients can meet all of the following inclusion criteria: • Patient must be at least 18 years of age. • Patient is able to provide written, informed consent before initiation of any study related-procedures, and is able, in the opinion of the investigator, to comply with all the requirements of the study. • Primary diagnosis of uveal melanoma as clinically determined by the treating investigator planned to undergo enucleation (prior plaque brachytherapy is permitted) • Life expectancy >3 months. • Able to safely swallow orally administered medication. • Patients with a prior history of or clinically stable concurrent malignancy are eligible for enrolment provided the malignancy is clinically insignificant, no treatment is required, and the patient is clinically stable. • Patients with a history of squamous or basal cell carcinoma of the skin or carcinoma in the situ of the cervix may be enrolled. • Patients with prostate cancer with an elevated PSA not requiring treatment may be enrolled. • Patient has Eastern Cooperative Oncology Group (ECOG) performance status 0-1 (Karnofsky 70%). • Patient has adequate organ function at screening: • Absolute neutrophil count ≥1500/mm3 without the use of hematopoietic growth factors • Platelet count ≥75,000/mm3 (must be at least 2 weeks post-platelet transfusion and not receiving platelet-stimulating agents) • Haemoglobin ≥8.0 g/dL (must be at least 2 weeks post-red blood cell transfusion and not receiving erythropoietic-stimulating agents) • Total bilirubin ≤1.5× the upper limit of normal (ULN).
The presence of any of the following can exclude a patient from being eligible for the study: • Previous treatment with a PKC inhibitor • Have adverse events (AEs) from prior anti-cancer therapy that have not resolved to Grade ≤1 except for alopecia, prior peripheral neuropathy, or anemia. Endocrinopathies resulting from previous immunotherapy are considered part of the medical history and not an AE. • Untreated or symptomatic malignant lesions in the central nervous system (CNS). • Known human immunodeficiency virus (HIV) or acquired immunodeficiency syndrome (AIDS)-related illness. • Active infection requiring therapy (except nail fungus), positive tests for Hepatitis B surface antigen (HBsAg) with detected Hepatitis B virus (HBV) DNA or positive Hepatitis C antibody with detected Hepatitis C virus (HCV) RNA. • Prior gastrectomy or upper bowel removal or any other gastrointestinal disorder or defect e.g., malabsorption disorder such as Crohn's disease or ulcerative colitis, that would interfere with absorption of Compound 1. • Patients who are receiving treatment with medications that cannot be discontinued prior to study entry and that are considered to be any of the following • known to be strong inducers or inhibitors of CYP3A4/5 • known to be substrates of CYP3A4/5, OAT3, OATP1B1, and MATE1/2-K with a narrow therapeutic index • Females who are pregnant or breastfeeding: • Women of childbearing potential must not be considering getting pregnant during the study. • Patients of reproductive potential (male & female) must practice an effective method of contraception during treatment and for 30 days following the last dose of Compound 1. […] If electrolytes are abnormal, they may be corrected, and baseline ECGs should be repeated. • Known to have previously received Compound 1 • Presence of any other condition that may increase the risk associated with study participation or may interfere with the interpretation of study results and, in the opinion of the investigator, would make the patient inappropriate for entry into the study.
A patient (patient 1) (enrolled in NCT05187884) was treated with Compound 1 (300 mg BID) for 27 days, prior to potential planned interventional procedure comprising enucleation. A 22% ocular tumor reduction in maximal apical height by ocular ultrasound (after about 28 days administration of Compound 1) was observed prior to the planned interventional procedure. […]

[2] = test system: ocular tumor (uveal melanoma); test: PET scan of metabolic activity of the ocular tumor (FDG avidity, SUV) in treated patients; type: in vivo, human
Procedure: (§1) A patient (patient 2) (enrolled in NCT02601378) with metastatic disease to liver and peritoneum at the time of diagnosis, and with primary lesion intact (intact ocular tumor) was treated with Compound 1 (300 mg BID).
A patient (patient 4) (enrolled in NCT05187884) was treated with Compound 1 (300 mg BID) for about 28 days, prior to the planned interventional procedure (e.g., enucleation). A 31% ocular tumor reduction in maximal apical height by ocular ultrasound was observed (after about 28 days administration of Compound 1).

[3] = test system: ocular tumor (uveal melanoma); test: Clinical outcome of the affected eye in treated uveal melanoma patients; type: in vivo, human
Procedure: as §1
A patient (patient 5) (enrolled in NCT05187884) was treated with Compound 1 (300 mg BID) for about 28 days. A 13% ocular tumor reduction in maximal apical height by ocular ultrasound was observed (after about 28 days administration of Compound 1). The patient is continuing on treatment to maximal benefit up to 6 months prior to planned enucleation. The patient was continuing treatment with Compound 1 (300 mg BID) for additional about 3 months (in addition to about 28 days as described above), and a 24% ocular tumor reduction in maximal apical height by ocular ultrasound was observed. […] The patient continues on adjuvant therapy for potentially up to 6 months.
A patient (patient 6) (enrolled in NCT05187884) was treated with Compound 1 (300 mg BID) for about 56 days, prior to the planned interventional procedure (e.g. enucleation). A 11% ocular tumor reduction in maximal apical height and 23% in Largest Basal Diameter by ocular ultrasound was observed. The patient is continuing on treatment to maximal benefit up to 6 months prior to planned enucleation. The patient continued treatment with Compound 1 (300 mg BID) for about 2 months (in addition to the 56 days as described above), and a 24% ocular tumor reduction in maximal apical height by ocular ultrasound was observed. The patient continued treatment with Compound 1 (300 mg BID) for about 1 month (in addition to about 4 months described above), and a 45% ocular tumor reduction in maximal apical height and 63% reduction in Largest Basal Diameter by ocular ultrasound was observed.

[4] = test system: uveal melanoma cells harboring GNAQ mutations; details: by targeting PKC/ERK1/2 and PKC/NF-xB pathways; X. Wu et al. 2012; cited from earlier work
[5] = patient 6, 300 mg BID, about 4 months plus about 1 month
[6] = patient 6, 300 mg BID, about 56 days
[7] = patient 7, 300 mg BID, after about 84 days
[8] = patient 8, 300 mg BID, after about 84 days
[9] = patient 9, 300 mg BID, after about 56 days

## CC1(N)CCN(c2cccnc2NC(=O)c2nc(-c3ncccc3C(F)(F)F)cnc2N)CC1 [Compound 1]
[1]; patient 1, 300 mg BID, after about 28 days
  ocular tumor reduction in maximal apical height by ocular ultrasound: 22%
[1]; patient 3, 300 mg BID, after 28 days
  ocular tumor reduction in maximal apical height by ocular ultrasound: ~10%
[1]; patient 4, 300 mg BID, after about 28 days
  ocular tumor reduction in maximal apical height by ocular ultrasound: 31%
[1]; patient 5, 300 mg BID, about 28 days plus additional about 3 months
  ocular tumor reduction in maximal apical height by ocular ultrasound: 24%
[1]; patient 5, 300 mg BID, after about 28 days
  ocular tumor reduction in maximal apical height by ocular ultrasound: 13%
[1]; patient 6, 300 mg BID, 56 days plus about 2 months
  ocular tumor reduction in maximal apical height by ocular ultrasound: 24%
[1]; [5]
  ocular tumor reduction in maximal apical height by ocular ultrasound: 45%
  reduction in Largest Basal Diameter by ocular ultrasound: 63%
[1]; [6]
  ocular tumor reduction in maximal apical height by ocular ultrasound: 11%
  reduction in Largest Basal Diameter by ocular ultrasound: 23%
[1]; [7]
  ocular tumor reduction in maximal apical height by ocular ultrasound: 14.3%
  reduction in Largest Basal Diameter by ocular ultrasound: 15.2%
[1]; [8]
  ocular tumor reduction in maximal apical height by ocular ultrasound: 28.5%
  reduction in Largest Basal Diameter by ocular ultrasound: 19.4%
[1]; [9]
  ocular tumor reduction in maximal apical height by ocular ultrasound: 4.0%
  reduction in Largest Basal Diameter by ocular ultrasound: 2.1%
[2]; patient 2 (metastatic disease, intact ocular tumor), 300 mg BID, after about two weeks
  reduction in the metabolic activity of the ocular tumor (FDG avidity) by SUV, PET: 74%
[2]; patient 4, 300 mg BID, after about one month
  reduction in the metabolic activity of the ocular tumor (FDG avidity) by SUV, PET: 42%
[3]; patient 2, 300 mg BID
  patient-reported visual symptoms in affected eye: improvement in visual symptoms in affected eye
[3]; patient 5, 300 mg BID neoadjuvant
  eye outcome (plaque brachytherapy enabled instead of planned enucleation): the eye was preserved
[3]; patient 6, 300 mg BID neoadjuvant
  eye outcome (plaque brachytherapy enabled instead of planned enucleation): the eye was preserved

## CN1CCN(c2nc(C3=C(c4c[nH]c5ccccc45)C(=O)NC3=O)c3ccccc3n2)CC1 [sotrastaurin]
[4]
  inhibition of growth of uveal melanoma cells harboring GNAQ mutations: selectively inhibit the growth
